Test results taken from patent US12559506B2, “Indazole based compounds and associated methods of use” (Arvinas Operations, Inc., priority 2021, dated 2026).
Like-named read-outs stand apart in the source and are kept apart here.

What was measured:
Format in all cases: cell-based
[1] = molecular target: T1, LRRK2 (endogenous, HiBit tagged) (Homo sapiens, UniProt Q5S007); test: Endogenous LRRK2 degradation assay, endogenous gene C-terminally HiBit-tagged in HEK293 cells (Nano-Glo Dual Luciferase); details: 24 hours; for Dmax: read-out: **Endogenous WT Dmax (%); for DC50: read-out: *Endogenous WT DC50
T1 construct: endogenous in cells; host or cells: HEK293 cells with HiBit knock-in at the endogenous LRRK2 locus, stably expressing firefly luciferase
Procedure, shortened: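 LRRK2-HiBit quantified via Nano-Glo Dual Luciferase in HEK293 knock-in cells co-expressing firefly luciferase, after 24 h exposure to compound (1 μM final top, 1:3, 11 points). Values normalised to DMSO median per plate and curve-fitted; Alamar Blue viability run alongside.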

wildtype LRRK2 = molecular target: T2, wildtype LRRK2 (Homo sapiens, UniProt Q5S007); test: LRRK2 degradation assay, HiBit-tagged wildtype LRRK2 expressed from plasmid in HEK293 cells (Nano-Glo Dual-Luciferase); details: 24 hours; for Dmax: read-out: **WT Dmax (%); for DC50: read-out: *WT DC50
T2 construct: expressed in transfected cells; host or cells: HEK293 (ATCC CRL-1573), transient transfection, mammalian expression vector with ubiquitin promoter
Procedure, shortened: (§1)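 HEK293 cells co-transfected with C-terminal HiBiT-tagged LRRK2 (WT or G2019S, ubiquitin promoter) and firefly luciferase, then dosed 24 h at 37 °C. HiBiT/firefly ratio normalized to DMSO median; DC50 and Dmax from per-plate curve fits, six replicates over two days.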

G2019S LRRK2 = molecular target: T3, G2019S LRRK2 (Homo sapiens, UniProt Q5S007, G2019S); test: LRRK2 degradation assay, HiBit-tagged G2019S LRRK2 expressed from plasmid in HEK293 cells (Nano-Glo Dual-Luciferase); details: 24 hours
T3 construct: expressed in transfected cells; host or cells: HEK293 (ATCC CRL-1573), transient transfection, mammalian expression vector with ubiquitin promoter
Procedure, shortened: as §1

[2] = endogenous HiBit-tagged LRRK2 in HEK293 cells
[3] = HiBit-tagged wildtype LRRK2 in HEK293 cells
[4] = HiBit-tagged G2019S LRRK2 in HEK293 cells
[5] = endogenous HiBit-tagged LRRK2, HEK293 cells
[6] = HiBit-tagged wildtype LRRK2, HEK293 cells
[7] = HiBit-tagged G2019S LRRK2, HEK293 cells

T1 sequence (Q5S007 whole entry): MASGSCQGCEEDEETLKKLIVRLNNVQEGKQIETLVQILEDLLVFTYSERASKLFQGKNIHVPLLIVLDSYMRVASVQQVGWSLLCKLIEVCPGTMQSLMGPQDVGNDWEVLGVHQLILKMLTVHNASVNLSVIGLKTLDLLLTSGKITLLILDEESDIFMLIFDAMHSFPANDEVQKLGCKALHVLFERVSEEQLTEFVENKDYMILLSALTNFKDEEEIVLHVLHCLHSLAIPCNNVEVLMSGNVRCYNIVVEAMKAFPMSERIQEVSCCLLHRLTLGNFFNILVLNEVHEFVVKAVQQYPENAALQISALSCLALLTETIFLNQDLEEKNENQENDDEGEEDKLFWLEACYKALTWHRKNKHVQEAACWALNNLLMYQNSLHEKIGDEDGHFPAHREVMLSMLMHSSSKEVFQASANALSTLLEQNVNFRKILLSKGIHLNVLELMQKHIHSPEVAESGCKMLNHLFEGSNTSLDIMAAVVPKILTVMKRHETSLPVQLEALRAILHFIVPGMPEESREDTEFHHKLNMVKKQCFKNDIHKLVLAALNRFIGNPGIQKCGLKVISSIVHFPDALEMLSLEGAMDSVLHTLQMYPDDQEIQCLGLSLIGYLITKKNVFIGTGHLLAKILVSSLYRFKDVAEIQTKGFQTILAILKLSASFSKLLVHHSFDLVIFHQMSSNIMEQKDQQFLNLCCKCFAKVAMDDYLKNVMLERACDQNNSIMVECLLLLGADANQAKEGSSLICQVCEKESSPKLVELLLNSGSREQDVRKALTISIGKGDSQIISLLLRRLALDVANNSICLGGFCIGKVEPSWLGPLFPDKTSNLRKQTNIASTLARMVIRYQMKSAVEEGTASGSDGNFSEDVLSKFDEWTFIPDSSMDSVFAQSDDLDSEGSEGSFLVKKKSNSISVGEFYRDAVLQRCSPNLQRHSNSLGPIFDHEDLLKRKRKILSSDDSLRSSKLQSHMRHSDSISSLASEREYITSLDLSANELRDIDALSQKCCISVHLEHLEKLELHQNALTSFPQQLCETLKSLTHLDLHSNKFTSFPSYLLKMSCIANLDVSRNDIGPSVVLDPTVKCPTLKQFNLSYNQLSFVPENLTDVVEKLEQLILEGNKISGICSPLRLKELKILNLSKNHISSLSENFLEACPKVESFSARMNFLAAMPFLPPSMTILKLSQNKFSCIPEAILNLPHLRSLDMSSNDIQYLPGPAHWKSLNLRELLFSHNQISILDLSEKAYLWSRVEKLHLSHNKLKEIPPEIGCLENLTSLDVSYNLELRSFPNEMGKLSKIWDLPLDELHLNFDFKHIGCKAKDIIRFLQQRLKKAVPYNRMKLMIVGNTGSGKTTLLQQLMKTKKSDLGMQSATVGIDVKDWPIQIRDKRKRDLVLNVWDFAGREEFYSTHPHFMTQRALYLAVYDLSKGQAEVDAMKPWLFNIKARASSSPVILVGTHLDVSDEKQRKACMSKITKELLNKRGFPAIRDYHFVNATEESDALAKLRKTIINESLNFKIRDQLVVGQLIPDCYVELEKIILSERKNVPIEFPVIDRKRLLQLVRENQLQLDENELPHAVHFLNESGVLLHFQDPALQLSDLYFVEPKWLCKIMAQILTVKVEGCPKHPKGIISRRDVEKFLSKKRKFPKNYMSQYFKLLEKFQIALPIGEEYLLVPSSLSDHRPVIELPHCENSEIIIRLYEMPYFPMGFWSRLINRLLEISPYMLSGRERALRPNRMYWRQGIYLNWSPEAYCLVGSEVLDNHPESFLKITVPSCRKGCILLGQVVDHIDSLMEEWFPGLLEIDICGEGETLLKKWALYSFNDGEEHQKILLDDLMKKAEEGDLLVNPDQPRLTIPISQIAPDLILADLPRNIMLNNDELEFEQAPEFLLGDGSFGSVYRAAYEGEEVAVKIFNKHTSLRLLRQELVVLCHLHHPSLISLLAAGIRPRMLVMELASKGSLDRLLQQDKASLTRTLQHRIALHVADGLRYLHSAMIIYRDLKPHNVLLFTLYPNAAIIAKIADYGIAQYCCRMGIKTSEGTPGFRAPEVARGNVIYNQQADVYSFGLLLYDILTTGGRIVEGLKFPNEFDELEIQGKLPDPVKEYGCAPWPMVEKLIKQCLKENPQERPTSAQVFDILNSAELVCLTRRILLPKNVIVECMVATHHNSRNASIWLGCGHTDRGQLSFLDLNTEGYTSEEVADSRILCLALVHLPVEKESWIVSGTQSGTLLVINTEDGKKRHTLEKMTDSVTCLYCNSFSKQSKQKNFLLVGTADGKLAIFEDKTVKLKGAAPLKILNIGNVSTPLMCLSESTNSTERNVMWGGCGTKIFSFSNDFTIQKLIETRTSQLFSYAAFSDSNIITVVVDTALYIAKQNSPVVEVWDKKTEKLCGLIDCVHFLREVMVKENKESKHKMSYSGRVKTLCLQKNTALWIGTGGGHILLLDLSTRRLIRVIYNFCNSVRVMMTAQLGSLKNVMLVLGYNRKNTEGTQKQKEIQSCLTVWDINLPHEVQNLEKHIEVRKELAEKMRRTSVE
T2 sequence (Q5S007 whole entry): as above
T3 sequence (Q5S007 whole entry G2019S): as the sequence (Q5S007 whole entry) above, with G2019S counted along it

## CC1(Oc2ccc3n[nH]c(-c4cc(N5CC(OC6CCN(CC7CCN(c8ccc9c(c8)C(=O)N(C8CCC(=O)NC8=O)C9=O)CC7)CC6)C5)ncn4)c3c2)CC1 (stereo not drawn) [Compound 130, 2-(2,6-dioxo-3-piperidyl)-5-[4-[[4-[1-[6-[5-(1-methylcyclopropoxy)-2H-indazol-3-yl]pyrimidin-4-yl]azetidin-3-yl]oxy-1-piperidyl]methyl]-1-piperidyl]isoindoline-1,3-dione]
[1]; [2]
  Dmax: ≥ 70%
  DC50: < 0.01 µM
Wildtype LRRK2; [3]
  Dmax: 50 to 70%
  DC50: < 0.01 µM
G2019S LRRK2; [4]
  DC50: < 0.01 µM
  Dmax: 50 to 70%

## CC1(Oc2ccc3n[nH]c(-c4cc(N5CC(F)(CN6CCN(CC7CCN(c8ccc9c(c8)C(=O)N(C8CCC(=O)NC8=O)C9=O)CC7)CC6)C5)ncn4)c3c2)CC1 (stereo not drawn) [Compound 131, 2-(2,6-dioxo-3-piperidyl)-5-[4-[[4-[[3-fluoro-1-[6-[5-(1-methylcyclopropoxy)-2H-indazol-3-yl]pyrimidin-4-yl]azetidin-3-yl]methyl]piperazin-1-yl]methyl]-1-piperidyl]isoindoline-1,3-dione]
[1]; [2]
  Dmax: ≥ 70%
  DC50: < 0.01 µM
Wildtype LRRK2; [3]
  Dmax: ≥ 70%
  DC50: < 0.01 µM
G2019S LRRK2; [4]
  DC50: < 0.01 µM
  Dmax: ≥ 70%

## CC1(Oc2ccc3[nH]nc(-c4ccnc(N5CC(F)(CN6CCN(CC7CCN(c8ccc9c(c8)C(=O)N(C8CCC(=O)NC8=O)C9=O)CC7)CC6)C5)c4)c3c2)CC1 (stereo not drawn) [Compound 132, 2-(2,6-dioxopiperidin-3-yl)-5-[4-({4-[(3-fluoro-1-{4-[5-(1-methylcyclopropoxy)-1H-indazol-3-yl]pyridin-2-yl}azetidin-3-yl)methyl]piperazin-1-yl}methyl)piperidin-1-yl]-2,3-dihydro-1H-isoindole-1,3-dione]
[1]; [2]
  Dmax: ≥ 70%
  DC50: < 0.01 µM
Wildtype LRRK2; [3]
  Dmax: 50 to 70%
  DC50: < 0.01 µM
G2019S LRRK2; [4]
  DC50: < 0.01 µM
  Dmax: 50 to 70%

## C[C@H]1CN(c2cc(-c3[nH]nc4ccc(OC5(C)CC5)cc34)ncn2)CCN1CC1CCN(CC2CCN(c3cccc4c3C(=O)N(C3CCC(=O)NC3=O)C4=O)CC2)CC1 (stereo partly drawn) [Compound 137, 2-(2,6-dioxo-3-piperidyl)-4-[4-[[4-[[(2S)-2-methyl-4-[6-[5-(1-methylcyclopropoxy)-2H-indazol-3-yl]pyrimidin-4-yl]piperazin-1-yl]methyl]-1-piperidyl]methyl]-1-piperidyl]isoindoline-1,3-dione]
[1]; [2]
  Dmax: ≥ 70%
  DC50: 0.01 to 0.05 µM
Wildtype LRRK2; [3]
  Dmax: ≥ 70%
  DC50: < 0.01 µM
G2019S LRRK2; [4]
  DC50: < 0.01 µM
  Dmax: ≥ 70%

## CC1(Oc2ccc3[nH]nc(-c4ccnc(N5CC(CC6CCN(CC7CCN(c8ccc9c(c8)C(=O)N(C8CCC(=O)NC8=O)C9=O)CC7)CC6)C5)c4)c3c2)CC1 (stereo not drawn) [Compound 160, 2-(2,6-dioxo-3-piperidyl)-5-[4-[[4-[[1-[4-[5-(1-methylcyclopropoxy)-1H-indazol-3-yl]-2-pyridyl]azetidin-3-yl]methyl]-1-piperidyl]methyl]-1-piperidyl]isoindoline-1,3-dione]
[1]; [5]
  Dmax: ≥ 70%
  DC50: < 0.01 µM
Wildtype LRRK2; [6]
  Dmax: 50 to 70%
  DC50: < 0.01 µM
G2019S LRRK2; [7]
  DC50: < 0.01 µM
  Dmax: 50 to 70%
